Molecules are shown by their SMILES. Where a name gives a salt, the structure may show the parent alone.

Series [1] concerns PNPLA3 mRNA. Briefly: qRT-PCR of PNPLA3 mRNA in human primary hepatic stellate cells. The format is cell-based. To be noted: 3 μM, relative to GAPDH. In general terms: Real-time PCR tracks product formation cycle by cycle.
In another series the test system is COL1A1 mRNA. Briefly: qRT-PCR of COL1A1 mRNA in human primary hepatic stellate cells. It counts as cell-based. The note with it: 3 μM, relative to GAPDH.
The test system of the next series is PCSK9 mRNA. Put plainly: qRT-PCR of PCSK9 mRNA in primary hepatocytes. The format is cell-based, human. To be noted: donor 4178, 3 μM, relative to GUSB.
Series [2] deals with PNPLA3 mRNA. Briefly: qRT-PCR of PNPLA3 mRNA in compound-treated primary human hepatocytes. The note with it: for Primary Hepatocytes 4178 PNPLA3 (fold change in mRNA expression): donor 4178, 3 μM; for Primary Hepatocytes 4178 PNPLA3 (fold change in mRNA expression) / Primary Hepatocytes 4282 PNPLA3 (fold change in mRNA expression): relative to GUSB; for Primary Hepatocytes 4282 PNPLA3 (fold change in mRNA expression): donor 4282, 3 μM; for Relative PINPLA3 mRNA: hepatocytes.

The test system of series [3] is PNPLA3 mRNA. Briefly: qRT-PCR of PNPLA3 mRNA in compound-treated mouse hepatocytes. The format is cell-based. The note with it: mouse hepatocytes, 1 μM, normalized to ACTB.

Take `Cc1c(CN2CCN(C(=O)[C@H](C)O)CC2)sc2c(N3CCOCC3)nc(-c3cnc(N)nc3)nc12` [Apitolisib]: in the series with PNPLA3 mRNA [1] (listed as GDC-0980), the “Primary Stellate cells PNPLA3 (fold change in mRNA expression)” value is listed as 0.67. In addition, in the series with COL1A1 mRNA (listed as GDC-0980), the “Primary Stellate cells COL1A1 (fold change in mRNA expression)” value is reported as 0.61. In addition, the “Primary Hepatocytes 4178 PCSK9 (fold change in mRNA expression)” value with PCSK9 mRNA (listed as GDC-0980) stood at 0.40. Besides, in the series with PNPLA3 mRNA [2] (listed as GDC-0980), the “Primary Hepatocytes 4178 PNPLA3 (fold change in mRNA expression)” value worked out at 0.37. For the same compound, in the series with PNPLA3 mRNA [2] (listed as GDC-0980), the “Primary Hepatocytes 4282 PNPLA3 (fold change in mRNA expression)” value is 0.40. The “Relative PINPLA3 mRNA” value in the series on PNPLA3 mRNA [2] (0.1 uM) worked out at 0.893; in the series on PNPLA3 mRNA [2] (0.3 uM), 0.669; with PNPLA3 mRNA [2] (1 uM), 0.420; with PNPLA3 mRNA [2] (3 uM), 0.365. Besides, in the series on PNPLA3 mRNA [2] (summary of mTOR/PI3K inhibitor testing), the “PNPLA3 expression by reported compound specificity (in words)” value was “most robust PNPLA3 inhibition”.

As to `Nc1cc(C(F)(F)F)c(-c2cc(N3CCOCC3)nc(N3CCOCC3)n2)cn1` [NVP-BKM120 (Hydrochloride)], the “Primary Stellate cells PNPLA3 (fold change in mRNA expression)” value in the series on PNPLA3 mRNA [1] stood at 0.43. Besides, the “Primary Stellate cells COL1A1 (fold change in mRNA expression)” value in the series on COL1A1 mRNA came out at 0.70. Besides, the “Primary Hepatocytes 4178 PCSK9 (fold change in mRNA expression)” value with PCSK9 mRNA is on record as 0.50. In the series with PNPLA3 mRNA [2], the “Primary Hepatocytes 4178 PNPLA3 (fold change in mRNA expression)” value came out at 0.56 and the “Primary Hepatocytes 4282 PNPLA3 (fold change in mRNA expression)” value worked out at 0.70.

Turning to `CCOC(=O)C1=C(N)Oc2ccc(Cl)cc2C1C(C#N)C(=O)OCC` (centres unmarked) [SC79], the “Primary Stellate cells PNPLA3 (fold change in mRNA expression)” value in the series with PNPLA3 mRNA [1] is given as 0.85. For the same compound, the “Primary Stellate cells COL1A1 (fold change in mRNA expression)” value in the series on COL1A1 mRNA is 0.98. The “Primary Hepatocytes 4178 PCSK9 (fold change in mRNA expression)” value in the series with PCSK9 mRNA amounted to 1.11. Besides, in the series with PNPLA3 mRNA [2], the “Primary Hepatocytes 4178 PNPLA3 (fold change in mRNA expression)” value was determined as 1.10 and the “Primary Hepatocytes 4282 PNPLA3 (fold change in mRNA expression)” value is given as 0.94.

As for `CC(C)Oc1ccc(-c2nn([C@@H](C)c3oc4ccc(F)cc4c(=O)c3-c3cccc(F)c3)c3ncnc(N)c23)cc1F` [umbralisib (TGR-1202)], the “Primary Stellate cells PNPLA3 (fold change in mRNA expression)” value in the series on PNPLA3 mRNA [1] is listed as 1.10. The “Primary Stellate cells COL1A1 (fold change in mRNA expression)” value in the series on COL1A1 mRNA amounted to 1.15. Also, the “Primary Hepatocytes 4178 PCSK9 (fold change in mRNA expression)” value in the series with PCSK9 mRNA was 0.80. Besides, in the series with PNPLA3 mRNA [2], the “Primary Hepatocytes 4178 PNPLA3 (fold change in mRNA expression)” value is 0.90 and the “Primary Hepatocytes 4282 PNPLA3 (fold change in mRNA expression)” value is recorded as 0.80.

Take `c1cncc(CN2CCC(n3ncc4c(N5CCOCC5)nc(-c5ccc6[nH]ccc6c5)nc43)CC2)c1` [WAY600]: the “Relative PNPLA3 mRNA levels” value in the series with PNPLA3 mRNA [3] turned out to be 0.67 ± 0.21.

Regarding `C[C@H](Nc1ncnc2[nH]cnc12)c1nc2ccc(F)cc2c(=O)n1-c1ccccc1` [Acalisib], the “Primary Stellate cells PNPLA3 (fold change in mRNA expression)” value in the series on PNPLA3 mRNA [1] came to 0.91. In the series with COL1A1 mRNA, the “Primary Stellate cells COL1A1 (fold change in mRNA expression)” value came to 0.96. Further, in the series with PCSK9 mRNA, the “Primary Hepatocytes 4178 PCSK9 (fold change in mRNA expression)” value was found to be 0.99. Also, in the series with PNPLA3 mRNA [2], the “Primary Hepatocytes 4178 PNPLA3 (fold change in mRNA expression)” value came to 1.00 and the “Primary Hepatocytes 4282 PNPLA3 (fold change in mRNA expression)” value stood at 1.00.

As to `C[C@@H](Nc1cc(F)cc(F)c1)c1cc(C(=O)N(C)C)cc2c(=O)cc(N3CCOCC3)oc12` [AZD8186], the “Primary Stellate cells PNPLA3 (fold change in mRNA expression)” value in the series with PNPLA3 mRNA [1] stood at 0.86. Further, the “Primary Stellate cells COL1A1 (fold change in mRNA expression)” value with COL1A1 mRNA stood at 1.22. Also, the “Primary Hepatocytes 4178 PCSK9 (fold change in mRNA expression)” value in the series with PCSK9 mRNA was 0.70. Further, in the series on PNPLA3 mRNA [2], the “Primary Hepatocytes 4178 PNPLA3 (fold change in mRNA expression)” value turned out to be 0.80 and the “Primary Hepatocytes 4282 PNPLA3 (fold change in mRNA expression)” value amounted to 0.80.

`Cc1nc(-c2cn3c(n2)-c2ccc(-c4cnn(C(C)(C)C(N)=O)c4)cc2OCC3)n(C(C)C)n1` [GDC-0032]: the “Primary Stellate cells PNPLA3 (fold change in mRNA expression)” value with PNPLA3 mRNA [1] is on record as 0.61. For the same compound, the “Primary Stellate cells COL1A1 (fold change in mRNA expression)” value with COL1A1 mRNA turned out to be 1.05. For the same compound, the “Primary Hepatocytes 4178 PCSK9 (fold change in mRNA expression)” value in the series on PCSK9 mRNA is 0.47. In addition, in the series on PNPLA3 mRNA [2], the “Primary Hepatocytes 4178 PNPLA3 (fold change in mRNA expression)” value is 0.58 and the “Primary Hepatocytes 4282 PNPLA3 (fold change in mRNA expression)” value came out at 0.60.

These data come from patent US20220107328A1, “METHODS OF TREATING LIVER DISEASES” (Camp4 Therapeutics Corporation, priority 2018, published 2022).
